Laboratory results taken from US3965109A, “Certain aryl amino pyridines” (priority 1971, dated 1976).

Legend:
[1] = test system: Puccinia recondita (wheat); assay: Fungicidal test against foliar disease A (foliage spray plus soil drench); type: in vivo; conditions: 100 ppm spray and drench; 10 days
[2] = test system: Tetranychus telarius (red spider mites, adults); assay: Pest toxicity test; type: in vivo; conditions: 0.1% by weight; French bean; 3 days
[3] = test system: Pieris brassicae (cabbage white caterpillars); assay: Pest toxicity test; type: in vivo; conditions: 0.1% by weight, 2 days
[4] = test system: Piricularia oryzae (rice); type: in vivo; conditions: 100 ppm spray and drench; 7 days
[5] = test system: Tetranychus telarius (red spider mites, eggs); assay: Pest toxicity test; type: in vivo; conditions: 0.1% by weight; French bean; 3 days
[6] = test system: Meloidogyne incognita (nematodes); assay: Pest toxicity test; type: in vivo; conditions: 0.01% by weight; water; 1 day
[7] = test system: Aedes aegypti (mosquito larvae); assay: Pest toxicity test; type: in vivo; conditions: for Mortality grading (kill): 0.01% by weight, water, 1 day; for abnormal growth effects in larva of mosquitos: in vivo
Aphis fabae = assay: Pest toxicity test; type: in vivo; conditions: 0.1% by weight; broad bean; 2 days
[8] = test system: Plasmopara viticola (vine); assay: Fungicidal test against foliar disease C (foliage spray plus soil drench); type: in vivo; conditions: 100 ppm spray and drench; 10 days
[9] = test system: Aedes aegypti (mosquito adults); assay: Pest toxicity test; type: in vivo; conditions: 0.01% by weight; plywood; 1 day
[10] = test system: Plutella maculipennis (diamond back moth larvae); assay: Pest toxicity test; type: in vivo
[11] = test system: Phaedon cochleariae (mustard beetles); assay: Pest toxicity test; type: in vivo
Uncinula necator (vine) = assay: Fungicidal test against foliar disease D (foliage spray plus soil drench); type: in vivo; conditions: 100 ppm spray and drench; 10 days
[12] = test system: Phytophthora infestans (tomato); type: in vivo; conditions: 100 ppm spray and drench; 3 days
[13] = test system: Agriolimax reticulatus (slugs); assay: Molluscicidal activity test; type: in vivo, Agriolimax reticulatus (Mull); conditions: pellet with 4% by weight; 6 days; 10°C
Procedure, shortened: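 Slugs were starved for 24 hours, then housed two per dish, in duplicate, under high humidity at 10°C. They fed on pellets dried to contain 4% w/w of test compound. Mortality was scored on day 6.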

Megoura viceae = assay: Pest toxicity test; type: in vivo; conditions: 0.1% by weight; broad bean; 2 days
[14] = test system: Musca domestica (houseflies); assay: Pest toxicity test, contact test; type: in vivo; conditions: 0.1% by weight; milk/sugar; 2 days; flies sprayed directly
[15] = 0.1% by weight, mustard/paper, 2 days

| Structure (SMILES) | Amount of disease grading, disease A [1] | Mortality grading (kill) [2] | Mortality grading (kill) [3] | Amount of disease grading, disease E [4] | Mortality grading (kill) [5] | Mortality grading (kill) [6] | Mortality grading (kill) [7] | Mortality grading (kill) (Aphis fabae) | Amount of disease grading, disease C [8] | Mortality grading (kill) [9] | Mortality grading (kill) ([10]; in vivo) | Mortality grading (kill) ([11]; in vivo) | Amount of disease grading, disease D (Uncinula necator (vine)) | % Kill of slugs [13] [%] | Mortality grading (kill) (Megoura viceae) | Mortality grading (kill), contact test [14] | abnormal growth effects in larva of mosquitos [7] | also measured |
| --- | --- | --- | --- | --- | --- | --- | --- | --- | --- | --- | --- | --- | --- | --- | --- | --- | --- | --- |
| O=[N+]([O-])c1cc(C(F)(F)F)ccc1Nc1c(Cl)c(F)nc(F)c1Cl [Compound 16, 3,5-Dichloro-2,6-difluoro-4(2-nitro-4-trifluoromethylanilino) pyridine] | 0 (61 to 100) | 2 (2 represents 60 - 90% kill) | 0 (O represents less than 30% kill) | 0 (61 to 100) | 0 (O represents less than 30% kill) | 2 (2 represents 60 - 90% kill) | 0 (O represents less than 30% kill) | 0 (O represents less than 30% kill) | 3 (0 to 5) | 0 (O represents less than 30% kill) | 0 (key: O represents less than 30% kill; 1 represents 30 - 49% kill; 2 represents 60 - 90% kill; 3 represents over 90% kill; C indicates a chemosterilant effect.; A indicates an antifeeding effect.) | 0 (key: O represents less than 30% kill; 1 represents 30 - 49% kill; 2 represents 60 - 90% kill; 3 represents over 90% kill; C indicates a chemosterilant effect.; A indicates an antifeeding effect.) | 0 (61 to 100) | 50 | 0 (O represents less than 30% kill) | 0 (O represents less than 30% kill) |  | Amount of disease grading, disease B [12]: 0 (61 to 100) |
| Fc1ccc(Nc2c(Cl)c(F)nc(F)c2Cl)cc1 [Compound 4, 3,5-Dichloro-2,6-difluoro-4(p-fluoroanilino)pyridine] |  | 0 (O represents less than 30% kill) | 0 (O represents less than 30% kill) |  | 0 (O represents less than 30% kill) | 2 (2 represents 60 - 90% kill) | 0 (O represents less than 30% kill) | 0 (O represents less than 30% kill) |  | 0 (O represents less than 30% kill) |  |  |  | 100 | 0 (O represents less than 30% kill) | 0 (O represents less than 30% kill) | abnormal growth effects | Mortality grading (kill) [10, 15]: 0 (O represents less than 30% kill); Mortality grading (kill) [11, 15]: 0 (O represents less than 30% kill) |
| COc1ccc(Nc2c(Cl)c(F)nc(F)c2Cl)c([N+](=O)[O-])c1 [Compound 18, 3,5-Dichloro-2,6-difluoro-4(4-methoxy-2-nitroanilino)pyridine] |  | 0 (O represents less than 30% kill) | 0 (O represents less than 30% kill) |  | 2 (2 represents 60 - 90% kill) | 0 (O represents less than 30% kill) | 0 (O represents less than 30% kill) | 0 (O represents less than 30% kill) |  | 0 (O represents less than 30% kill) | 0 (key: O represents less than 30% kill; 1 represents 30 - 49% kill; 2 represents 60 - 90% kill; 3 represents over 90% kill; C indicates a chemosterilant effect.; A indicates an antifeeding effect.) | 0 (key: O represents less than 30% kill; 1 represents 30 - 49% kill; 2 represents 60 - 90% kill; 3 represents over 90% kill; C indicates a chemosterilant effect.; A indicates an antifeeding effect.) |  | 50 | 0 (O represents less than 30% kill) |  |  |  |
| Fc1nc(F)c(Cl)c(Nc2cc(C(F)(F)F)ccc2Br)c1Cl [Compound 13, 3,5-Dichloro-2,6-difluoro-4(2-bromo-5-trifluoromethylanilino)pyridine] | 0 (61 to 100) | 0 (O represents less than 30% kill) | 0 (O represents less than 30% kill) | 2 (6 to 25) | 0 (O represents less than 30% kill) | 0 (O represents less than 30% kill) | 0 (O represents less than 30% kill) | 0 (O represents less than 30% kill) | 3 (0 to 5) | 0 (O represents less than 30% kill) | 0 (key: O represents less than 30% kill; 1 represents 30 - 49% kill; 2 represents 60 - 90% kill; 3 represents over 90% kill; C indicates a chemosterilant effect.; A indicates an antifeeding effect.) | 0 (key: O represents less than 30% kill; 1 represents 30 - 49% kill; 2 represents 60 - 90% kill; 3 represents over 90% kill; C indicates a chemosterilant effect.; A indicates an antifeeding effect.) | 0 (61 to 100) |  | 0 (O represents less than 30% kill) | 0 (O represents less than 30% kill) | abnormal growth effects |  |
| Fc1nc(F)c(Cl)c(Nc2c(F)c(F)c(Br)c(F)c2F)c1Cl [Compound 30, 4(4-Bromo-2,3,5,6-tetrafluoroanilino)-3,5-dichloro-2,6-difluoropyridine] |  | 3 (3 represents over 90% kill) | 3 (3 represents over 90% kill) |  | 0 (O represents less than 30% kill) | 3 (3 represents over 90% kill) | 3 (3 represents over 90% kill) | 0 (O represents less than 30% kill) |  | 2 (2 represents 60 - 90% kill) | 1 (key: O represents less than 30% kill; 1 represents 30 - 49% kill; 2 represents 60 - 90% kill; 3 represents over 90% kill; C indicates a chemosterilant effect.; A indicates an antifeeding effect.) | 0 (key: O represents less than 30% kill; 1 represents 30 - 49% kill; 2 represents 60 - 90% kill; 3 represents over 90% kill; C indicates a chemosterilant effect.; A indicates an antifeeding effect.) |  | 100 | 0 (O represents less than 30% kill) | 0 (O represents less than 30% kill) |  | Amount of disease grading, disease A (Table 4) [1]: 0 (61 to 100); Amount of disease grading, disease E (Table 4) [4]: 0 (61 to 100); Amount of disease grading, disease C (Table 4) [8]: 3 (0 to 5); Amount of disease grading, disease D (Table 4) (Uncinula necator (vine)): 0 (61 to 100); Amount of disease grading, disease B (Table 4) [12]: 1 (26 to 60) |
